Inhibition data for seven compounds are collected here from patent US10414769B2, “5,8-dimethyl-9-phenyl-5,8-dihydro-6H-pyrazolo[3,4-h]quinazolin-2-yl)-(1H-pyrazol-3-yl)-amines as IGF-1R/IR inhibitors” (Boehringer Ingelheim International GmbH, priority 2015, dated 2019).

Holding throughout (format): biochemical
One assay has as its target T1, ACVR1B (ALK4) (Homo sapiens, UniProt P36896).
T1 construct: purchased Life Technologies PV4312
T1 sequence (P36896 24-505): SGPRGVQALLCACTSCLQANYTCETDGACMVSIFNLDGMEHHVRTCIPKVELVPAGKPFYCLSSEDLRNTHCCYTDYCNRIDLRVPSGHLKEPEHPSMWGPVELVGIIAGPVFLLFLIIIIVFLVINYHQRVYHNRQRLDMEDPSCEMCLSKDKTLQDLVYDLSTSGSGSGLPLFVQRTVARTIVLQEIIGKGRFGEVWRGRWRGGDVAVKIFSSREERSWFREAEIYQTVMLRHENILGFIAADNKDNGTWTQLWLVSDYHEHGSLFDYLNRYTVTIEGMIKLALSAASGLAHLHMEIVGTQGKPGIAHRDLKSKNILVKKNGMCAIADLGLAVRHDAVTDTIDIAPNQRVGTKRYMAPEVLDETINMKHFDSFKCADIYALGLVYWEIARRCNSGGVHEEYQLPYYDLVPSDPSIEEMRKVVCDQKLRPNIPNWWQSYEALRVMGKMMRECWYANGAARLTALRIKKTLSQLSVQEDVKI
Nature of the assay: Z'-LYTE kinase selectivity assay ACVR1B. An excerpt: (§1) In order to compare the kinase selectivity of compounds (I) according to the invention with known prior art compounds the commercially provided SelectScreen® Kinase Profiling Service (Z′-LYTE®) was used (Life Technologies GmbH, Darmstadt, Germany) to investigate the ability of the compounds to inhibit a number of different, representatively selected human kinases. Further details regarding this service are available on the Life Technologies website at
(§2) The Z′-LYTE® biochemical assay employs a fluorescence-based, coupled-enzyme format and is based on the differential sensitivity of phosphorylated and non-phosphorylated peptides to proteolytic cleavage. The peptide substrate is labeled with two fluorophores—one at each end—that make up a FRET pair.
(§3) In the primary reaction, the kinase transfers the gamma-phosphate of ATP to a single tyrosine, serine or threonine residue in a synthetic FRET-peptide. In the secondary reaction, a site-specific protease recognizes and cleaves non-phosphorylated FRET-peptides. Phosphorylation of FRET-peptides suppresses cleavage by the Development Reagent. Cleavage disrupts FRET between the donor (i.e., coumarin) and acceptor (i.e., fluorescein) fluorophores on the FRET-peptide, whereas uncleaved, phosphorylated FRET-peptides maintain FRET. A ratiometric method, which calculates the ratio (the Emission Ratio) of donor emission to acceptor emission after excitation of the donor fluorophore at 400 nm, is used to quantitate reaction progress, as shown in the equation below.
(§4) The Test Compounds are screened at 1 μM.
The 2×ACVR1B (ALK4) (# PV4312)/Ser/Thr 16 (Z′-LYTE® Kinase Assay Kit—Ser/Thr 16 Peptide, # PV 3802) mixture is prepared in 50 mM HEPES pH 7.5, 0.01% BRIJ-35, 10 mM MnCl2, 1 mM EGTA, 2 mM DTT, 0.02% NaN3. The final 10 μL Kinase Reaction consists of 9.15-60 ng ACVR1B (ALK4) and 2 μM Ser/Thr 16 in 50 mM HEPES pH 7.5, 0.01% BRIJ-35, 5 mM MgCl2, 5 mM MnCl2, 1 mM EGTA, 1 mM DTT, 0.01% NaN3. After the 1 hour Kinase Reaction incubation, 5 μL of a 1:16 dilution of Development Reagent B is added.

The target in the next assay is T2, EGFR (ErbB1) (Homo sapiens, UniProt P00533).
T2 construct: purchased Life Technologies PV 3872
The experiment in a line: Z'-LYTE kinase selectivity assay EGFR.
Source text: as §1, §2, §3, §4
The 2×EGFR (ErbB1) (# PV 3872)/Tyr 04 (Z′-LYTE® Kinase Assay Kit—Tyrosine 4 Peptide, # PV 3193) mixture is prepared in 50 mM HEPES pH 7.5, 0.01% BRIJ-35, 10 mM MgCl2, 4 mM MnCl2, 1 mM EGTA, 2 mM DTT. The final 10 μL Kinase Reaction consists of 1.1-8 ng EGFR (ErbB1) and 2 μM Tyr 04 in 50 mM HEPES pH 7.5, 0.01% BRIJ-35, 10 mM MgCl2, 2 mM MnCl2, 1 mM EGTA, 1 mM DTT. After the 1 hour Kinase Reaction incubation, 5 μL of a 1:64 dilution of Development Reagent B is added.

A further assay addresses T3, MAPK14 (p38 alpha) (Homo sapiens, UniProt Q16539).
T3 construct: purchased Life Technologies PV 3304
The experiment in a line: Z'-LYTE kinase selectivity assay MAPK14.
Source text: as §1, §2, §3, §4
After the 1 hour Kinase Reaction incubation, 5 μL of a 1:1024 dilution of Development Reagent A is added.

The next assay addresses T4, MAPKAPK2 (Homo sapiens, UniProt P49137).
T4 construct: purchased Life Technologies PV 3317
Nature of the assay: Z'-LYTE kinase selectivity assay MAPKAPK2.
Source text: as §1, §2, §3, §4
The 2×MAPKAPK2 (# PV 3317)/Ser/Thr 04 (Z′-LYTE® Kinase Assay Kit—Ser/Thr 4 Peptide, # PV 3177) mixture is prepared in 50 mM HEPES pH 7.5, 0.01% BRIJ-35, 10 mM MgCl2, 1 mM EGTA. The final 10 μL Kinase Reaction consists of 0.04-0.18 ng MAPKAPK2 and 2 μM Ser/Thr 04 in 50 mM HEPES pH 7.5, 0.01% BRIJ-35, 10 mM MgCl2, 1 mM EGTA. After the 1 hour Kinase Reaction incubation, 5 μL of a 1:1024 dilution of Development Reagent A is added.

A further assay addresses T5, PRKACA (PKA) (Homo sapiens, UniProt P17612).
T5 construct: purchased Life Technologies P 2912
Nature of the assay: Z'-LYTE kinase selectivity assay PRKACA.
Source text: as §1, §2, §3, §4
The 2×PRKACA (PKA) (# P 2912)/Ser/Thr 01 (Z′-LYTE® Kinase Assay Kit—Ser/Thr 1 Peptide, # PV 3174) mixture is prepared in 50 mM HEPES pH 7.5, 0.01% BRIJ-35, 10 mM MgCl2, 1 mM EGTA. The final 10 μL Kinase Reaction consists of 0.03-0.15 ng PRKACA (PKA) and 2 μM Ser/Thr 01 in 50 mM HEPES pH 7.5, 0.01% BRIJ-35, 10 mM MgCl2, 1 mM EGTA. After the 1 hour Kinase Reaction incubation, 5 μL of a 1:4096 dilution of Development Reagent A is added.

T2 sequence (P00533 25-1210): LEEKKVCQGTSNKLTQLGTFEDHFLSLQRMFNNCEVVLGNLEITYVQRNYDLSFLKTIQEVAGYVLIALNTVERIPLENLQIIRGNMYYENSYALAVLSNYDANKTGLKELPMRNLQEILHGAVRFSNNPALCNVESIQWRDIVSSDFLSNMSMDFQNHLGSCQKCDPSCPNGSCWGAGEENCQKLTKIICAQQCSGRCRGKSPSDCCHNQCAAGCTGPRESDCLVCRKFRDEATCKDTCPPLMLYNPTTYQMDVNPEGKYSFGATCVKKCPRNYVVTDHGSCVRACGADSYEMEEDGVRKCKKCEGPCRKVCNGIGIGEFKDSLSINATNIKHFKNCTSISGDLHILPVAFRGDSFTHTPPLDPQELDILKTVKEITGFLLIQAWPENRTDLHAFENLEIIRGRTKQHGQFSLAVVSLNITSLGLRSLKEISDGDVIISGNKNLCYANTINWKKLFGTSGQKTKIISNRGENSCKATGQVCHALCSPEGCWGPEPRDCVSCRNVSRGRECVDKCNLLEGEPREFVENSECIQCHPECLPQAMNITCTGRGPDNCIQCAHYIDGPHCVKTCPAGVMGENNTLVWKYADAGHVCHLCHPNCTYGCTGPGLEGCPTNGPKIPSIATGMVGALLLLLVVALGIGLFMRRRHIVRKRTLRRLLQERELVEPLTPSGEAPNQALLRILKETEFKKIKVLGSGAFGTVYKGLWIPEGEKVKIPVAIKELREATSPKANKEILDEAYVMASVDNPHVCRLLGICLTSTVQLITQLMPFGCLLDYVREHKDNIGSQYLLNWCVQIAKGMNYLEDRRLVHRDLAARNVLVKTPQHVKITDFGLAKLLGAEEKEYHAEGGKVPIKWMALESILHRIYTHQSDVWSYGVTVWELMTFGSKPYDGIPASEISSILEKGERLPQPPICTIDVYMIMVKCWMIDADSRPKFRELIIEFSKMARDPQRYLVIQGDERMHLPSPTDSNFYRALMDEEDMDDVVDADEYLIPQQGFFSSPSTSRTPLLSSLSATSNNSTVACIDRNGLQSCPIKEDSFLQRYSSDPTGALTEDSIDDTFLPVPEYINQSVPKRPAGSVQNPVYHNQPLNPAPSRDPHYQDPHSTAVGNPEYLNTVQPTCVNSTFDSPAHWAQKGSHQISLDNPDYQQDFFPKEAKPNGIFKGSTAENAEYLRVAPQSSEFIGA
T3 sequence (Q16539 whole entry): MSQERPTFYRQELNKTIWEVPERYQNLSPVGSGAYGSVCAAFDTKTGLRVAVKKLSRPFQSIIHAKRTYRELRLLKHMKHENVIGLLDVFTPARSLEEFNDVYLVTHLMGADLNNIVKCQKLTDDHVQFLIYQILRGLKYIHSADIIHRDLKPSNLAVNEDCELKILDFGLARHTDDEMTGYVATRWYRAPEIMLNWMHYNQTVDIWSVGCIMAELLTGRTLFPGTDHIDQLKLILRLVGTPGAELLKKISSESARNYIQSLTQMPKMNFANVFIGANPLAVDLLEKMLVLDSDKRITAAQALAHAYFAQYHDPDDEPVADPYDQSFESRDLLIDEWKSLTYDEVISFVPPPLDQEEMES
T4 sequence (P49137 whole entry): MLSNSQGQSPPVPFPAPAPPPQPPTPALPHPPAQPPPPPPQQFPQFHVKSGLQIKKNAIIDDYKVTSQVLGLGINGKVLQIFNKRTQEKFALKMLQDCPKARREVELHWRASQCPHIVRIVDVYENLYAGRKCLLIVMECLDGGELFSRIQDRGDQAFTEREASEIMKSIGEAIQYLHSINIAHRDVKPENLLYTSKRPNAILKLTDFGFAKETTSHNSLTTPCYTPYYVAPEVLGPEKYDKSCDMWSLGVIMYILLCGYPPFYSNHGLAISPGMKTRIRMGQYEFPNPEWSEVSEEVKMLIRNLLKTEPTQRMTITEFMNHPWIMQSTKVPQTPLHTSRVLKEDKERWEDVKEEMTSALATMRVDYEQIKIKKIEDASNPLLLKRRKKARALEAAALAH

On to `C[C@@H]1Cc2nn(C)c(-c3ccccc3)c2-c2nc(Nc3ccn(CCN4CCOCC4)n3)ncc21` [Compound I-2], for which the inhibition at 1 µM at ACVR1B (ALK4) stood at 0%; on EGFR (ErbB1) it was 68%; against MAPK14 (p38 alpha), 7%; at MAPKAPK2 it was 1%; against PRKACA (PKA), 22%.

Consider `CC(O)CN1CCN(CCn2ccc(Nc3ncc4c(n3)-c3c(nn(C)c3-c3ccccc3)C[C@H]4C)n2)CC1` (some centres unmarked) [Compound I-7], for which the inhibition at 1 µM on ACVR1B (ALK4) turned out to be 0%; at EGFR (ErbB1) it was 77%; at MAPK14 (p38 alpha), 2%; against MAPKAPK2, 5%; against PRKACA (PKA), 16%.

On to `COCCN1CCN(CCn2ccc(Nc3ncc4c(n3)-c3c(nn(C)c3-c3ccccc3)C[C@H]4C)n2)CC1` [Compound I-11], for which the inhibition at 1 µM against ACVR1B (ALK4) was -11%; against EGFR (ErbB1), 53%; against MAPK14 (p38 alpha) it was 1%; against MAPKAPK2 it was -2%; on PRKACA (PKA), -3%.

For `C[C@@H]1Cc2nn(C)c(-c3ccccc3)c2-c2nc(Nc3ccn(CCN4CCN(CC5CCCO5)CC4)n3)ncc21` (some centres unmarked) [Compound I-9], the inhibition at 1 µM turned out to be 7% at ACVR1B (ALK4); 65% on EGFR (ErbB1); 4% against MAPK14 (p38 alpha); 3% on MAPKAPK2; 17% on PRKACA (PKA).

Regarding `C[C@@H]1Cc2nn(C)c(-c3ccccc3)c2-c2nc(Nc3ccn(CCN4CCN(CC(=O)OC5CCOCC5)CC4)n3)ncc21` [Compound I-8], the inhibition at 1 µM at ACVR1B (ALK4) is -4%; against EGFR (ErbB1) it was 56%; against MAPK14 (p38 alpha), -5%; at MAPKAPK2, 5%; at PRKACA (PKA), 16%.

Consider `C[C@@H]1Cc2nn(C)c(-c3ccccc3)c2-c2nc(Nc3ccn(CCN4CCN(C)CC4)n3)ncc21` [Compound I-1], for which the inhibition at 1 µM against ACVR1B (ALK4) was -10%; on EGFR (ErbB1), 65%; on MAPK14 (p38 alpha) it was -5%; against MAPKAPK2, -3%; at PRKACA (PKA) it was -5%.

On to `C[C@@H]1Cc2nn(C)c(-c3ccccc3)c2-c2nc(Nc3ccn(CCN4CCN(CC(C)(C)O)CC4)n3)ncc21` [Compound I-3], for which the inhibition at 1 µM against ACVR1B (ALK4) was 0%; at EGFR (ErbB1) it was 72%; on MAPK14 (p38 alpha) it was 2%; at MAPKAPK2 it was 2%; on PRKACA (PKA) it was 13%.

As a reminder, the inhibition is the drop in the measured response relative to a control, in per cent.
